From ChEMBL document CHEMBL1201862, “PubChem BioAssay data set” (2004) come the findings set out here.

Calls of active or inactive are those of the source. Some results are limits rather than exact numbers.

Assay [1] concerns Vero. Kind of assay: cells. It counts as functional, cell-based. The note with it: Chlorocebus sabaeus.
Assay [2] concerns the target T1, Heat shock factor protein 1 (Mus musculus, UniProt P38532).
T1 sequence (P38532 whole entry): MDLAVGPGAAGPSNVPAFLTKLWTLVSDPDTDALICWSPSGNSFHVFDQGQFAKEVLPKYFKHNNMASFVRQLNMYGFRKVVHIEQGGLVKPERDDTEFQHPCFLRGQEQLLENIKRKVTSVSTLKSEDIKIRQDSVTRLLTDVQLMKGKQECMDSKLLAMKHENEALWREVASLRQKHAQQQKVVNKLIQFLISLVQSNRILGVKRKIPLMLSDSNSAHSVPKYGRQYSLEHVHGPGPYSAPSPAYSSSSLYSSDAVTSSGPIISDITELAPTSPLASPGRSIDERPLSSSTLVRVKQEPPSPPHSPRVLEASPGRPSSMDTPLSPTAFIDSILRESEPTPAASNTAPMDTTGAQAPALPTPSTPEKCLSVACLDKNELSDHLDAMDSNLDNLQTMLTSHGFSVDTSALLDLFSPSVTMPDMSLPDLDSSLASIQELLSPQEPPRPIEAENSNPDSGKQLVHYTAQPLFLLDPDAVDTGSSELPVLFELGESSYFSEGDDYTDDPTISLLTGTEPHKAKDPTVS
Nature of the assay: enhancement of HSF1-driven luciferase signal – cell-based, NIH3T3, luminescence, dose retest, confirmation (AID 435004).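 Further: stress induced by proteasome inhibitor MG132 added 30 min after compound; luciferase reporter driven by HSF1 response element in NIH3T3 cells; actives raise luminescence as potentiators of the MG132 stress response.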 In kind it is functional.

The target of assay [3] is Genome polyprotein (dengue virus type 2, UniProt P29990). Nature of the assay: flavivirus cap methylation enzyme inhibition – biochemical, confirmation dose response, primary screen (AID 588689). In kind it is functional.
Genome polyprotein, sequence (P29990 2492-3391 limits assumed): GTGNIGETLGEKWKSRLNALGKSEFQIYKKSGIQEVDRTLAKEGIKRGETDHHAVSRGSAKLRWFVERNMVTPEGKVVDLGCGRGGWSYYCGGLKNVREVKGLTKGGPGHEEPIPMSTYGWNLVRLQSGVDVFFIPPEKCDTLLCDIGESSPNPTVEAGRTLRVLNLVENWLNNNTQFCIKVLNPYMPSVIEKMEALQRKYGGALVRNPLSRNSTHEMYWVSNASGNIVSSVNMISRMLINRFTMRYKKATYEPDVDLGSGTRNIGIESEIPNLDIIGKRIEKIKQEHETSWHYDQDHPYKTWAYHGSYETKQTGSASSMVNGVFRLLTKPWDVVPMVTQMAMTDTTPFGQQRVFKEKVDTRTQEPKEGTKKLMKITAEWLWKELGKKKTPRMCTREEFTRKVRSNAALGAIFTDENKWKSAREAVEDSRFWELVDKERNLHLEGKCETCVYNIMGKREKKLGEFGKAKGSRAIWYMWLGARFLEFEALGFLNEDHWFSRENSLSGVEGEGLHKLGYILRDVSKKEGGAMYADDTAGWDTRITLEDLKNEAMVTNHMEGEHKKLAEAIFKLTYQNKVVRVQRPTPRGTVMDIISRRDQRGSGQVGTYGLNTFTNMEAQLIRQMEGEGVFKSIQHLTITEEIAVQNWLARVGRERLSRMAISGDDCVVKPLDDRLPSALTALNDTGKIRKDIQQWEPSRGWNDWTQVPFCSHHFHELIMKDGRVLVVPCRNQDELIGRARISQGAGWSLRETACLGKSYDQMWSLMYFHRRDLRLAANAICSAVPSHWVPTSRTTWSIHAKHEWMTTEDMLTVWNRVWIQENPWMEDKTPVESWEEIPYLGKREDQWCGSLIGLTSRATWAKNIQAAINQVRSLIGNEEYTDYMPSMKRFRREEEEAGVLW
The subject of assay [4] is Vero. Kind of assay: mammalian cell viability reduction – secondary assay, cytotoxicity control for West Nile virus antiviral project, dose response (AID 1650). It counts as functional. As to conditions: Chlorocebus sabaeus.
The nature of assay [5]: Luminescent dose response cell-based high throughput screening assay for inhibitors of the Janus kinase 2 mutant JAK2V617F. [Related pubchem assays: 1446 (Primary screen.), 1521 (Confirmation assay.), 1486 (Counter screen.)]. It counts as functional. A general note: The purpose of a counterscreen is to sort out artefacts and off-target activity.
Assay [6] relates to Vero. Kind of assay: cells. In kind it is functional. The note with it: Chlorocebus sabaeus.
Assay [7] has as its target T2, Replicative DNA helicase DnaB (Mycobacterium tuberculosis, UniProt P9WMR3).
T2 sequence (P9WMR3 whole entry): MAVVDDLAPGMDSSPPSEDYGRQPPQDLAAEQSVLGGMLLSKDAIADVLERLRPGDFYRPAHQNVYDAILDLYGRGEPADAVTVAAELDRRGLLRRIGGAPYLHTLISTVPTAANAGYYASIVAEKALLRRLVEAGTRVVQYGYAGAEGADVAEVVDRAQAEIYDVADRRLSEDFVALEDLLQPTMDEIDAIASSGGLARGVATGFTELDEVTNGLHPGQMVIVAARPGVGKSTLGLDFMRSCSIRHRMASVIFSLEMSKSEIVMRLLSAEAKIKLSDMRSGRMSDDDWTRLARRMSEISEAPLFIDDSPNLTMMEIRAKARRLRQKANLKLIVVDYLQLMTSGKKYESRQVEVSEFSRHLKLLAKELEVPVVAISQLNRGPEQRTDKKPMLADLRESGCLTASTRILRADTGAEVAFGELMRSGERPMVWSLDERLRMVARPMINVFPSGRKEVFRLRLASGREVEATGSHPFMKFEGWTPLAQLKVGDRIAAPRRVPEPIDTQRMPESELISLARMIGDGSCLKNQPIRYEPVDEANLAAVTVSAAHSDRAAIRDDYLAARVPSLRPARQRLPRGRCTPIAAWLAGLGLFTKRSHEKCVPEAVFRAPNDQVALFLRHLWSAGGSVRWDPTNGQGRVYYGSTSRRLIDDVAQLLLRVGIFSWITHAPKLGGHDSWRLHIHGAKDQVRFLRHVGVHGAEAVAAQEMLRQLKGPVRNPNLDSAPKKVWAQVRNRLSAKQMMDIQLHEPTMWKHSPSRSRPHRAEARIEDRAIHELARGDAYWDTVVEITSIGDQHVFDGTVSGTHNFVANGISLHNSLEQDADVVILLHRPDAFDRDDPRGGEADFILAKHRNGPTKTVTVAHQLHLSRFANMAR
Kind of assay: DnaB intein splicing inhibitors, dose response, biochemical, cell-free fluorescence (AID 449749). It counts as functional.

Assay [8] addresses T3, Protein RecA (Mycobacterium tuberculosis, UniProt P9WHJ3).
T3 sequence (P9WHJ3 whole entry): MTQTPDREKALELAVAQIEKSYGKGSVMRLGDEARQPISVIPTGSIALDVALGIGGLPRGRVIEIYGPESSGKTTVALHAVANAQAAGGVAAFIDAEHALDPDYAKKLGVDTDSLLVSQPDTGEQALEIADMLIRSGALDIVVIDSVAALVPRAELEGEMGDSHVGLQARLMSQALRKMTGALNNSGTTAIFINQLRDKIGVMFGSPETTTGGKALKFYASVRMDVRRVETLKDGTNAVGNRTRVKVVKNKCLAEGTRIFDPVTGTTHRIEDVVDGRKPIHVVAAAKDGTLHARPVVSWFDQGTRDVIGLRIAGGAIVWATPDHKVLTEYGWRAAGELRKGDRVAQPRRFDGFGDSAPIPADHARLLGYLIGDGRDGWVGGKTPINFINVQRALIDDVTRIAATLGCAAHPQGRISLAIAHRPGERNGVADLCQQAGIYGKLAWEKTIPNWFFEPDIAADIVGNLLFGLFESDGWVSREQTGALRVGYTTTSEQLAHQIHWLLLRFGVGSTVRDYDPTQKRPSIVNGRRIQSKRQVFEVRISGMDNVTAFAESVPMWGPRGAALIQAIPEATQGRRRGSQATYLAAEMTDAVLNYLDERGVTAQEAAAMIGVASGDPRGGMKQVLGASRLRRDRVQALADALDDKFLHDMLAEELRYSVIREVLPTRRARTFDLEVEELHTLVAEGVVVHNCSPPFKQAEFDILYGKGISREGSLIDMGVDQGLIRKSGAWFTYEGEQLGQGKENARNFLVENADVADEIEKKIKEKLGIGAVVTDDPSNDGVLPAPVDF
Nature of the assay: Fluorescence Cell-Free Homogeneous Dose Retest to Identify Inhibitors of RecA-Intein Splicing Activity. [Related pubchem assays (depositor defined):AID2097, AID2223, AID489010, AID492950]. In kind it is functional.

A short description of assay [9]: Luminescence Cell-Based Dose Retest to Confirm Inhibitors of Cancer Stem Cells. [Related pubchem assays (depositor defined):AID2717, AID2721]. It counts as functional. The note with it: Homo sapiens.
In assay [10] the test system is Vero. Nature of the assay: viability of Vero cells under compound – cytotoxicity control for flavivirus capping enzyme inhibitors (AID 588742). In kind it is functional. As to conditions: Chlorocebus sabaeus.
Assay [11] in a line: Luminescence Cell-Based Dose Confirmation HTS to Identify Activators of 5'UTR Stem-Loop Driven Alpha-Synuclein mRNA Translation in H4 Neuroglioblastoma Cells. [Related pubchem assays: 1829 (Project Summary), 1814 (Primary HTS)]. It counts as functional.
The nature of assay [12]: Luminescence Cell-Based Dose Response to Identify Activators of Luciferase Translation or Activity in H4-C Neuroglioblastoma Cells. [Related pubchem assays: 1829 (Project Summary), 1814 (Primary HTS)]. In kind it is functional.
Assay [13] can be described thus: Luminescence Cell-Based Dose Response to Identify Activators of 5'UTR Stem-Loop Driven Prion Protein mRNA Translation in H4-C Neuroglioblastoma Cells. [Related pubchem assays: 1829 (Project Summary), 1814 (Primary HTS)]. In kind it is functional.
Assay [14] in a line: Luminescence Cell-Based Dose Response HTS to Identify Activators of Luciferase Translation or Activity in H4 […] Cells. [Related pubchem assays: 1829 (Project Summary), 1814 (Primary HTS)]. It counts as functional.
A short description of assay [15]: Luminescence Cell-Based Dose Confirmation to Identify Activators of 5'UTR Stem-Loop Driven Alpha-Synuclein mRNA Translation in H4 Neuroglioblastoma Cells. [Related pubchem assays: 1829 (Project Summary), 1814 (Primary HTS)]. It counts as functional.
Assay [16] has as its system H4. Nature of the assay: Luminescence Cell-Based Dose Response HTS to Identify Activators of 5'UTR Stem-Loop Driven Prion Protein mRNA Translation in H4 Neuroglioblastoma Cells. [Related pubchem assays: 1829 (Project Summary), 1814 (Primary HTS)]. In kind it is functional. As to conditions: Homo sapiens.
Assay [17] concerns HT-1080. Kind of assay: HT1080 cell viability loss – fluorescence readout (AID 620). In kind it is functional, cell-based. As to conditions: Homo sapiens.
Assay [18] deals with Luciferin 4-monooxygenase (Photinus pyralis, UniProt P08659). Nature of the assay: Counter Screen for Luciferase-based Assay Positives. [Related pubchem assays: 620, 618, 411 ].
Luciferin 4-monooxygenase, sequence (P08659 whole entry): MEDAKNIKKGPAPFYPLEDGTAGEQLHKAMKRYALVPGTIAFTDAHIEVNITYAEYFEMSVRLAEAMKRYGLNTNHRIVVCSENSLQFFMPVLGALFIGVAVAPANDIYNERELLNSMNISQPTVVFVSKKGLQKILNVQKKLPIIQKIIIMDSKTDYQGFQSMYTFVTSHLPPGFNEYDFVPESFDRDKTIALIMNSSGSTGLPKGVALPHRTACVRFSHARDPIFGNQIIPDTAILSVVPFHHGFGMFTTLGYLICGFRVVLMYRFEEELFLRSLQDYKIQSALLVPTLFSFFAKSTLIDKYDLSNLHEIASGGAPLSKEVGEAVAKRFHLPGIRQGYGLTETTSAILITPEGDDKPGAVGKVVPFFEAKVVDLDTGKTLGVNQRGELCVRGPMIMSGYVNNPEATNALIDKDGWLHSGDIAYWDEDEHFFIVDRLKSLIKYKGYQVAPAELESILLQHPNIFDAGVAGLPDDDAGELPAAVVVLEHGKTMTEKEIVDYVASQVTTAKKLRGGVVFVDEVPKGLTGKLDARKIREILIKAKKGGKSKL
The target in assay [19] is ATP-sensitive inward rectifier potassium channel 1 (Homo sapiens, UniProt P48048). Nature of the assay: Kir1.1 channel inhibitor analog potency – cell-based, thallium flux, analog library, SAR follow-up (AID 435017). In kind it is functional.
ATP-sensitive inward rectifier potassium channel 1, sequence (P48048 whole entry): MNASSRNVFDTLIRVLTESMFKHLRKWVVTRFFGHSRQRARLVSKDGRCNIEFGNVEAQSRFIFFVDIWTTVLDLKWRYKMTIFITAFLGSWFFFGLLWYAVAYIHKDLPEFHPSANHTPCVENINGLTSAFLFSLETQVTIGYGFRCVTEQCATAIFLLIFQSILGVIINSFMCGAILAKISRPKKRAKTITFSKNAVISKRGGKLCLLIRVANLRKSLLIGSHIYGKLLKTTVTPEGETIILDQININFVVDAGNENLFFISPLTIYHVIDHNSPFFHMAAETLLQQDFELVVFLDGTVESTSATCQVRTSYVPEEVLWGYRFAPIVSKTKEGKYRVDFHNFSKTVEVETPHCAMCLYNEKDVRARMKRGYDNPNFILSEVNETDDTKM
Assay [20] in a line: viability of uninfected HEp-2 cells – cell-based, HTS, cytotoxicity control for RSV inhibitor project, dose response (AID 2410). As to conditions: human respiratory syncytial virus. In kind it is functional.
Assay [21] in a line: A Cell-Based Counter Screen testing Compounds that Inhibit VEEV TC-83, in strain KU V3526. It counts as functional.
Assay [22] is described as follows: viability loss in Vero 76 cells – cell-based, set 2, cytotoxicity control, dose response (AID 602240). As to conditions: Venezuelan equine encephalitis virus. It counts as functional.
Assay [23] in a line: A Cell-Based Confirmatory Screen for Compounds that Inhibit VEEV, TC-83 (2). It counts as functional.
The nature of assay [24]: cells.
In assay [25] the target is T4, E3 ubiquitin-protein ligase XIAP (Homo sapiens, UniProt P98170). Nature of the assay: Counter Screen using XIAP-Bir3 for Chemical Antagonists of Bir1/2 domains of IAP-family anti-apoptotic proteins. [Related pubchem assays (depositor defined):AID1018, AID1449, AID1514, AID1638, AID1749, AID1750, AID488957, AID488963].
T4 sequence (P98170 whole entry): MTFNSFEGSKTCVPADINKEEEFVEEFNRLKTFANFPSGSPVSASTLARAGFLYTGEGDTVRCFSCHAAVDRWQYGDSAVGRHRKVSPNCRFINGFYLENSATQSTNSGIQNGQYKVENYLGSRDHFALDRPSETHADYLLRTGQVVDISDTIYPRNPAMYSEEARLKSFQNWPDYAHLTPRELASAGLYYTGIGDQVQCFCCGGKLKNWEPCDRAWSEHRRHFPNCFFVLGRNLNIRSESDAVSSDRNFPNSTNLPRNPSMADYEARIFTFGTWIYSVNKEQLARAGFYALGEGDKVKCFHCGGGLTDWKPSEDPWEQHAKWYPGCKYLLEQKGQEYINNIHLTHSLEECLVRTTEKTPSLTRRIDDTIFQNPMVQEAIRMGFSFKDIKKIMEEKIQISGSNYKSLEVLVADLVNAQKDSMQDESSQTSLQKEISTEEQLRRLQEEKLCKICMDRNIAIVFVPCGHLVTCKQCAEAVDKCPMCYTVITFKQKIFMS
The target in assay [26] is T4, E3 ubiquitin-protein ligase XIAP. Nature of the assay: small molecules displacing peptide from XIAP – biochemical, IAP family, fluorescence polarization (AID 1018). In kind it is functional. For orientation: Fluorescence polarisation rises when a labelled molecule tumbles more slowly, as on binding a larger partner.

As usually defined, the IC50 is the midpoint of a concentration-inhibition curve. In general, EC50 refers to the concentration needed to bring the measured effect to its halfway point. What is called CC50 is the concentration that lowers cell viability or growth by half. As usually defined, the AC50 is the midpoint of the concentration-response curve, whichever way the signal moves. For the molecule `Cc1ccc(NC(=O)C(=Cc2ccc(C(=O)O)cc2)C(=O)Nc2ccc(C)cc2C)c(C)c1`, the IC50 in assay [1] is 19.6 µM (active); in assay [3] it was > 100 µM (active); in [5], 1.95 µM (active). The EC50 is 6.71 µM (active) in [2] and 3.21 µM (active) in [8]. Besides, the CC50 was 7.51 µM (active) in assay [4], 9.83 µM (active) in assay [6] and 27.3 µM (active) in assay [10]. Further, the AC50 is 2.51 µM (active) in assay [7] and 1.9 µM (active) in assay [9].

As for `NNc1nc2c(F)cccc2s1`, the concentration giving a half-maximal response (EC50) in assay [11] is < 0.1 µM (active); in [12], > 12 µM (not active); in assay [13], > 12 µM (not active); in [14], 5.67 µM (active); in assay [15], > 12 µM (not active); in assay [16], > 120 µM (not active).

`Nc1ccc2oc(-c3ccc4[nH]cnc4c3)nc2c1`: the figures for the 50% effective concentration (EC50) in [17] and in assay [18] were > 50 µM (not active) and 11.2 µM (active), respectively.

Regarding `COc1ccc([N+](=O)[O-])cc1CN1CCOCCOCCN(Cc2ccc([N+](=O)[O-])cc2OC)CCOCC1`, the IC50 in assay [19] was 1.5 µM (active).

Take `O=C(Cc1cccs1)Nc1nc2c(s1)CCCC2`: the half-maximal inhibitory concentration (IC50) in assay [1] is 6.38 µM (active); in [21] it was 4.71 µM (active); in assay [23] it was 7.09 µM (active); in assay [24], 10 µM (active). Moreover, the CC50 in [20] is 17.2 µM (active); in assay [22], > 50 µM (active); in assay [6] it was > 25 µM (active).

For `O=c1c2ccccc2nnn1CSc1nnc(-c2cccs2)n1Cc1ccccc1`, the IC50 in assay [25] was > 100 µM (inactive); in assay [26], > 100 µM (not active).
